Experimental data taken from patent US20030135033A1, “Compounds and methods for the identification and/ or validation of a target” (priority 2002, published 2003).

Experiments:
PTEN mRNA [1] = test: PTEN knock down by RNAi versus antisense oligonucleotide (Western blot, dose response); type: cell-based, human
Description: The cells were infected using any of these two constructs according to the methods described herein above.
The result of this experiment is depicted in FIG. 18. […] As a positive control an antisense oligonucleotide specific for PTEN referred to as GeneBloc 53 (disclosed above) was also applied to the respective expression system at different concentrations (60 nM, 15 nM, 3.75 nM and 0.93 nM).
To further illustrate the impact of RNAi which is specific for PTEN, on the ratio of PTEN to p110 a dose response was generated which is shown in FIG. 19. From FIG. 19 it may be taken that even at the lowest concentration, i. e. 0.03 nM, the PTEN specific RNAi still reduces the ratio of PTEN to p 110 to about one third of the respective control. […] This is in clear contrast to RNAi which is not specific for PTEN.

PTEN mRNA [2] = test: Immunoblot of phosphorylated Akt after GeneBloc transfection of PTEN negative PC-3 cells; type: cell-based, human; conditions: PC-3 cells (PTEN negative), 30 nM, 48 h
Description: More particularly, HeLa cells (380.000 cells/plate) and PC-3 cells (450.000 cells/plate) were transfected in parallel on 10 cm plates. Each cell line was treated for 48 h in duplicate samples with 30 nM of PTEN GeneBloc 53 or GBC. The cell extracts were analyzed by immunoblotting for the relative amounts of p110, PTEN and phosphorylated Akt (P*-Akt) as indicated on the right. The band which migrates just above the PTEN signal was caused by unspecific reaction of the secondary antibody. […]
Cells were washed twice with cold phosphate-buffered saline and lysed at 4° C. in lysis buffer containing 20 mM Tris (pH 7.5), 137 mM NaCl, 15% (vol/vol) glycerol, 1% (vol/vol) Nonidet P-40 (NP-40), 2 mM phenylmethylsulfonyl fluoride, […], 20 mM leupeptin, 2 mM benzamidine, 1 mM sodium vanadate, 25 mM […]-glycerol phosphate, 50 mM NaF and 10 mM NaPPi. Lysates were cleared by centrifugation at 14,000× g for 5 minutes and aliquots of the lysates were analyzed for protein expression by Western-blotting: Samples were separated by SDS-PAGE and transferred to nitrocellulose-filters (Schleicher & Schuell). […] Bound antibody was detected using anti-mouse- or anti-rabbit-conjugated horse radish peroxidase (Transduction Laboratories, BD) in TBST, washed, and developed using the SuperSignal West Dura (Pierce) or ECL (Amersham) chemoluminescence substrates. […]

PTEN mRNA [3] = test: Relative PTEN RNA level by Taqman analysis; type: cell-based, rat; conditions: 3Y1 cells, parallel samples of BrdU experiment
Description: The RNA of cells transfected in 96-wells was isolated and purified using the Invisorb RNA HTS 96 kit (InVitek GmbH, Berlin). Inhibition of PTEN mRNA expression was detected by real time RT-PCR (Taqman) analysis using PTEN 5′ primer […] (SEQ ID No. 47), PTEN 3′ primer […] (SEQ ID No. 48) and the Taqman probe Fam-[…]-Tamra (SEQ ID No. 34). The reaction was carried out in 50 μl and assayed on the ABI PRISM 7700 Sequence detector (Applied Biosystems) according to the manufacturer's instructions under the following conditions: 48° C. for 30 min, 95° C. for 10 min, followed by 40 cycles of 15 sec at 95° C. and 1 min at 60° C.
(§1) 3Y1 cells were used, because these untransformed rat fibroblasts are very sensitive to transfection conditons and are prone to arrest or even undergo apoptosis. Subconfluent 3Y1 cells in 96 wells were treated with PTEN GeneBloc 48, GeneBloc 53 or GBC as a control. On day 2 the cells were synchronized in low serum. During days 3 and 4 the cells were released into the cell cycle by serum stimulation at various time points. BrdU was added for the last 2 h of incubation. Untreated cells and cells that were treated with Aphidicolin for 24 h were used as controls. RNA knock down was analyzed in parallel samples. The rate of synthesis was determined via the amount of incorporated BrdU.

3Y1 cells = test: Rate of DNA synthesis by incorporation of bromodeoxyuridine; type: cell-based, rat; conditions: synchronized in low serum, released by serum stimulation
Description: 3Y1 cells plated in 96-wells at 1600 cells per well were transfected in triplicate samples with GeneBloc molecules. After ca. 30 h the cells were starved in DMEM containing 10 mM HEPES (pH 7.2) under continuous GeneBloc treatment. The cells were released into the cell cycle at various time points by addition of 10% serum. Control cells were incubated with 5 μg/ml aphidicolin for 18 h. After pulse-labeling with 10 μM 5-bromo-2′-deoxyururidine (BrdU) for the last 2 h the cells were fixed and permeabilized. The relative amount of BrdU incorporated into each sample was determined by using the Cell Proliferation ELISA, BrdU (colorimetric) (Roche) according to the manufacturer's instructions. Incorporated BrdU was detected by measuring the absorbance at 405 nm and 490 nM using the Spectra Max 190 (Molecular Devices).
as §1

Substance: ucuccuuTTGTTTCTGcuaacga (UCUCCUUTTGTTTCTGCUAACGA; chemistry not fully specified) [PTEN 53, third generation antisense oligonucleotide (GeneBloc) against PTEN]
- concentration required compared to RNAi (PTEN mRNA [1]; PTEN knockdown, Western blot): requires higher concentrations compared to RNAi
- PTEN expression (Western blot) (PTEN mRNA [1]; antisense oligonucleotide at 60 nM, 15 nM, 3.75 nM and 0.93 nM): allows for a specific knockdown of PTEN
- phosphorylated Akt (P*-Akt) (immunoblot) (PTEN mRNA [2]): generate phosphorylated Akt irrespective
- phosphorylated Akt (P*-Akt) (immunoblot) (PTEN mRNA [2]; listed as PTEN GeneBloc 53): had no effect
- PTEN mRNA level (PTEN/actin RNA) (PTEN mRNA [3]): remained downregulated
- rate of DNA synthesis (incorporated BrdU) (3Y1 cells): strong increase in DNA synthesis after 18 h
